Assay results: ChEMBL document CHEMBL1127402, “Orally active non-peptide fibrinogen receptor (GpIIb/IIIa) antagonists: identification of 4-[4-[4-(aminoiminomethyl)phenyl]-1-piperazinyl]-1-piperidineacetic acid as a long-acting, broad-spectrum antithrombotic agent” (J Med Chem, 1994)

Organism: Homo sapiens
Assay: Inhibition of 10 uM ADP induced aggregation in human gel filtered platelets in the presence fibrinogen and aspirin.
Format: functional

Row | IC50 [nM] | SMILES
1 | 54000 | CCN(CC)CCO[C@H]1CC[C@H]([C@H]2CC[C@](O)(CC(=O)O)CC2)CC1
2 | 37 | N=C(N)c1ccc(N2CCN(C3CCN(CC(=O)O)CC3)CC2)cc1
3 | 210 | N/C(=N\CC(F)(F)F)c1ccc(-c2ccc(C3=CCC(O)(CC(=O)O)CC3)cc2)cc1 (centres undefined)
4 | 31 | N=C(N)c1ccc(-c2ccc(N3CC[N+](CC(=O)O)(Cc4ccccc4)CC3)cc2)cc1
